# Experimental data taken from patent US20240299347A1, “METHODS AND COMPOSITIONS TO TREAT HUNTINGTON'S DISEASE BY TARGETING ALOX5- MEDIATED FERROPTOSIS” (The Trustees of Columbia University in the City of New York, priority 2023, published 2024).
# Columns and labels:
# [1] = test system: HTTQ94 Tet-on HT-22 cells; test: Cell death assay, HTTQ94 Tet-on HT-22 cells treated with glutamate; type: cell-based, mouse; settings: doxycycline 0.5 μg/ml and glutamate 10 mM, 20 h; for effect of inhibitor on HTTQ94-mediated ferroptosis upon glutamate induction: Ferr-1 2 μM, Zileuton 10 μM
# Method: (G) Cell death assay in HTTQ94 Tet-on HT-22 cells. Cells were transfected with control siRNA (ctrl) or ALOX5 siRNA, followed by incubation with doxycycline (0.5 μg/ml) and glutamate (10 mM) for 16 h in the presence or absence of Ferr-1 (2 μM). Cell death were calculated from three replicates; Data shown in (A), (C), (E) and (G) are means±SD. P-values were derived from two-tailed unpaired t-test.
# (E) Cell death assay. The HTTQ94 Tet-on HT-22 cells were treated with doxycycline (0.5 μg/ml) and glutamate (10 mM) in the presence or absence of Ferr-1(2 μM) or Zileuton (10 μM) for 20 h. […] Data shown in (B), (C), (D) and (E) are are means±SD. P-values were derived from two-tailed unpaired t-test.
# Cells were plated at 20˜30% density one day prior to siRNAs transfection.
# Cells were treated with ferroptosis inducer TBH or erastin or glutamate combined with other drugs or conditions. At indicated time points, cells were trypsinized and stained with trypan blue followed by counting with a hemocytometer using the cell number counter (Life technologies countess II). Living cells and dead cells were all counted, and cells stained blue were considered as dead cells.
# [2] = test system: mHTT-mediated ferroptosis; test: mHTT-mediated ferroptosis (summary statement); type: cell-based; settings: general statement
# [3] = test system: HTTQ94 Tet-on HT-22 cells; test: Cell death assay, HTTQ94 Tet-on HT-22 cells under ROS stress (TBH); type: cell-based, mouse; settings: for effect of inhibitor on HTTQ94-mediated cell death upon ROS stress: then TBH 10 μM 8 h, Ferr-1 2 μM, Lipro-1 2 μM, DFO 100 μM, zVAD 10 μM, 3 MA 2 mM, Nec1 10 μM, Zileuton 10 μM, MK886 10 μM
# Method: (A) Representative phase-contrast images of cell death from the HTTQ94 tet-on HT-22 cells. HTTQ94 Tet-on HT-22 cells were pre-incubated with doxycycline (0.5 μg/ml) for 4 h, and then treated with TBH (10 μM) for 8 h in the presence or absence of the ferroptosis inhibitors (ferrostatin-1, Ferr1, 2 μM; liproxstatin-1, Lipor1, 2 μM and DFO, 100 μM), apoptosis inhibitor (Z-VADFMK, zVAD, 10 μM), autophagy inhibitor (3-methylademine, 3 MA, 2 mM) or necroptosis inhibitor (necrostatin-1, Nec1, 10 μM). (B) Quantification of cell death, related to panel A. Three replicates for each group. […] Cell death were calculated from three replicates; Data shown in (B), (C), and (E) are means±SD. P-values were derived from two-tailed unpaired t-test. (***) P≤0.001, (**) P≤0.01, (*) P≤0.05, (n.s.) P >0.05.
# [4] = test system: HT-22 HTTQ94 inducible cells; test: TfR1 immunofluorescence staining of ferroptotic cells; type: cell-based, mouse; settings: doxycycline 1 μg/ml O/N
# Method: FIGS. 13A-D. TfR1 staining is able to specifically recognize ferroptotic cells induced by HTTQ94 expression. (A) Limb clasping analysis in HD and HD/Alox5null mice (9-, 11- and 13-week-old). p<0.01, n=7. (B-D), TfR1 staining in HT-22 HTTQ94 inducible cells upon TBH treatment. HT-22 HTTQ94 inducible cells were treated 1 μg/ml doxycycline O/N to induce HTTQ94 expression, followed by treatment with 30 μM TBH for 6 h, and then cells were stained with TfR1 antibody. (B) Representative images of TfR1 staining. (C) Quantification of TfR1 staining. (D) Cell death assay, related to panel B. Data shown in (A) are means±SD. Data shown in (C) and (D) are means±SEM. P-values were derived from two-tailed unpaired t-test. (***) P<0.001, (**) P≤0.01, (*) P<0.05, (n.s.) P >0.05.
# For cell line: HT-22 HTTQ94 inducible cells were fixed with 2% paraformaldehyde at RT for 20 min, and then incubated with blocking buffer (10% donkey serum, 0.3% Triton X-100 in PBS), followed by incubation with TfR1 antibody (1: 250, Thermo Fisher Scientific, Cat #13-6800) for 1 h, and then incubation with Alexa 568 conjugated secondary antibody (1:250, Thermo Fisher Scientific, Cat #A11004) for additional 1 h.
# [5] = test system: HTTQ94 Tet-on HT-22 cells; test: Cell death assay, HTTQ94 Tet-on HT-22 cells treated with erastin; type: cell-based, mouse; settings: doxycycline 0.5 μg/ml 4 h, then Erastin 1 μM 12 h; Ferr-1 2 μM, ROSI 10 μM, TRO 10 μM
# Method: (B) HTTQ94 Tet-on HT-22 cells were pre-incubated with doxycycline (0.5 μg/ml) for 4 h, and then treated with Erastin (1 μM) for 12 h with/without Ferr-1 (2 μM). […] (E) Cell death assay. Control, HTTQ94 and HTTQ19 fragment Tet-on H1299 cells pre-incubated with doxycycline (0.5 μg/ml) for 16 h were treated with Erastin (30 μM) for 48 h with/without Ferr-1 (2 μM). Cell death were calculated from three replicates; Data shown in (B) and (E) are the means±SD. P-values were derived from two-tailed unpaired t-test. (***) P≤0.001, (**) P≤0.01, (*) P≤0.05, (n.s.) P >0.05.
# (A) Cell death assay. HTTQ94 Tet-on HT-22 cells pre-incubated with doxycycline (0.5 μg/ml) for 4 h were treated with Erastin (1 μM) for 12 h in the presence or absence of ferrostatin-1 (Ferr-1, 2 μM) or ACSL4 inhibitors (rosiglitazone, ROSI, 10 μM; troglitazone, TRO, 10 μM). (B) Cell death assay. […] Cell death were calculated from three replicates. […]
# Cells were treated with ferroptosis inducer TBH or erastin or glutamate combined with other drugs or conditions. […] Living cells and dead cells were all counted, and cells stained blue were considered as dead cells. Quantification of cell death was further confirmed using ToxiLight Non-destructive Cytotoxicity BioAssay Kit (LT07-117; Lonza). Data were collected using GloMax® Explorer Multimode Microplate Reader (Promega).
# [6] = test system: cellular models of Huntington's disease (HD); settings: Skouta et al. 2014; cited from earlier work
smiles,measurement,setting,value
"CC(c1cc2ccccc2s1)N(O)C(N)=O (racemic) [Zileuton, (±)-1 (1-Benzo[b]thien-2-ylethyl)-1-hydroxyurea]",effect of inhibitor on HTTQ94-mediated ferroptosis upon glutamate induction,[1],completely blocked
same,block of mHTT-mediated ferroptosis,[2],effectively blocked
CC(=O)N(O)CCCCCNC(=O)CCC(=O)N(O)CCCCCNC(=O)CCC(=O)N(O)CCCCCN [DFO],effect of inhibitor on HTTQ94-mediated cell death upon ROS stress,[3]; doxycycline 0.5 μg/ml 4 h,specifically blocked
"Clc1cccc(CN=C2Nc3ccccc3NC23CCNCC3)c1 [Lipro-1, liproxstatin-1]",effect of inhibitor on HTTQ94-mediated cell death upon ROS stress,[3]; doxycycline 0.5 μg/ml 4 h,specifically blocked
"CC(C)(C)OO [TBH, tert-butyl hydroperoxide]",levels of anti-TfR1 antibody staining cells with inducer upon HTTQ94 induction,[4]; TBH 30 μM 6 h,dramatically increased
same,cell death induced by inducer alone,"[3]; TBH 10 μM 8 h, no HTTQ94 induction",failed to induce any cell death
same,cell death induced by inducer combined with HTTQ94 expression,"[3]; doxycycline 0.5 μg/ml 4 h, TBH 10 μM 8 h",high levels of cell death
CCOC(=O)c1ccc(NC2CCCCC2)c(N)c1 [ferrostatin-1],effect of inhibitor on HTTQ94-mediated cell death (ferroptosis) upon erastin,[5],completely inhibited
same,effect of inhibitor on levels of anti-TfR1 antibody staining,"[4]; then TBH 30 μM 6 h, with Ferr-1",abolished
same,effect of inhibitor on HTTQ94-mediated ferroptosis upon glutamate induction,[1],inhibited
same,effect of inhibitor on HTTQ94-mediated cell death upon ROS stress,[3]; doxycycline 0.5 μg/ml 4 h,specifically blocked
same,rescue of cell death,[6],significantly rescued
N[C@@H](CCC(=O)O)C(=O)O [glutamate],cell death induced by inducer upon HTTQ94 expression,[1],high levels of cell death
